These results are taken from US9657014B2, “Substituted 1,6-naphthyridines” (Hoffmann-La Roche Inc., priority 2012, dated 2017).

This assay deals with human embryonic stem cell derived neural stem cells (NSCs). Put plainly: Neural stem cell proliferation assay (neurogenesis assay). It is filed as cell-based. Particulars: Homo sapiens, Neural stem cell, 96 h; Table 1, novel compounds; concentration at which 150% activity of control (100%) is reached; ATP levels (CellTiterGlo) after 4 days incubation. The method, then: Neural Stem Cell Proliferation Assay
Neurogenic properties of small molecules are determined based on the proliferation of human embryonic stem cell derived neural stem cells (NSCs) which were derived via a dual smad inhibition as previously described (Chambers, S. M., et al., Highly efficient neural conversion of human ES and iPS cells by dual inhibition of SMAD signaling, Nature biotechnology, 2009. 27 (3): p. 275-80.)
Compounds respond is measured by the increase in cells based on ATP levels (Promega:CellTiterGlo®) after an incubation period of 4 days.
NSCs are thawed and expanded over 3 passages. On the 14th day, NSCs are seeded in Polyornithin/Laminin coated 384 well plates at a cell density of 21,000 cells/cm^2 in a media volume of 38 μl.
4 hours after cell seeding, compound solutions are added at a volume of 2 μl. Stock solutions of the compounds (water, 5% DMSO) are diluted to obtain a dose response (11 points, dilution factor is 2), ranging from 8 μM to 8 nM. Controls are run to consistently determine the neurogenic properties of the cells:
Negative (neutral) control is cell culture Media (final DMSO concentration: 0.25%).
Positive controls are: • 1. cell culture Media+100 ng/ml FGF2 (final DMSO concentration: 0.1%) • 2. cell culture Media+20 ng/ml EGF (final DMSO concentration: 0.1%) • 3. cell culture Media+100 ng/ml Wnt3a (final DMSO concentration: 0.1%)
After 4 days incubation at 37° C., 5% CO2, the amount of ATP per well is quantified. The ATP concentration is proportional to the cell number. ATP is quantified by using the Promega CellTiterGlo® kit. The CellTiterGlo® reagents contain a cell lysis buffer, a thermo stable luciferase (UltraGlo™ recombinant luciferase), magnesium and luciferin. Luciferin reacts with ATP producing oxyluciferin, AMP and light. The luminescence signal is proportional to the ATP content.
The value of negative (neutral) control is determined for each assay plate by taking the average of 16 negative control wells. The neurogenic compound response is calculated for each compound as (compound/Negative Control)*100.
The values of EC150 from the dose response curve are determined for each test compound. The EC150 is the compound concentration at which 150% activity of control (100%) is reached.
For `CN1CCN(C(=O)c2ccc3cncc(-c4ccc(Cl)cc4)c3n2)CC1` [Example 73, (8-(4-Chlorophenyl)-1,6-naphthyridin-2-yl)(4-methylpiperazin-1-yl)methanone], the EC (150% of control) worked out at 0.64 µM.

As to `O=C(c1ccc2cncc(-c3ccc(Cl)cc3)c2n1)N1CCS(=O)(=O)CC1` [Example 74, [8-(4-Chloro-phenyl)-[1,6]naphthyridin-2-yl]-(1,1-dioxo-thiomorpholin-4-yl)-methanone], the EC (150% of control) was 1.68 µM.

Compound `O=C(c1ccc2cncc(-c3ccc(Cl)cc3)c2n1)N1CCC(O)C1` (stereo not shown) [Example 75, (8-(4-Chlorophenyl)-1,6-naphthyridin-2-yl)(3-hydroxypyrrolidin-1-yl)methanone] gave an EC (150% of control) of 0.4 µM.

On to `N#CC1(NC(=O)c2ccc3cncc(-c4ccc(Cl)cc4)c3n2)CC1` [Example 76, 8-(4-Chlorophenyl)-N-(1-cyanocyclopropyl)-1,6-naphthyridine-2-carboxamide], for which the EC (150% of control) worked out at 1.84 µM.

For the compound `NC(=O)c1ccc2cncc(-c3ccc(F)cc3)c2n1` [Example 77, 8-(4-Fluorophenyl)-1,6-naphthyridine-2-carboxamide], the EC (150% of control) stood at 0.09 µM.

Consider `NC(=O)c1ccc2cncc(-c3cccc(F)c3)c2n1` [Example 78, 8-(3-Fluorophenyl)-1,6-naphthyridine-2-carboxamide], for which the EC (150% of control) stood at 0.05 µM.

In turn, `NC(=O)c1ccc2cncc(-c3ccccc3F)c2n1` [Example 79, 8-(2-Fluorophenyl)-1,6-naphthyridine-2-carboxamide] yielded an EC (150% of control) of 0.03 µM.

On to `Cc1ccc(-c2cncc3ccc(C(N)=O)nc23)cc1` [Example 80, 8-Tolyl-1,6-naphthyridine-2-carboxamide], for which the EC (150% of control) was 0.03 µM.

Regarding `Cc1cccc(-c2cncc3ccc(C(N)=O)nc23)c1` [Example 81, 8-m-Tolyl-1,6-naphthyridine-2-carboxamide], the EC (150% of control) was 0.05 µM.

In turn, `Cc1ccccc1-c1cncc2ccc(C(N)=O)nc12` [Example 82, 8-o-Tolyl-1,6-naphthyridine-2-carboxamide] yielded an EC (150% of control) of 2.05 µM.

For the compound `NC(=O)c1ccc2cncc(-c3ccc(F)c(F)c3)c2n1` [Example 83, 8-(3,4-Difluorophenyl)-1,6-naphthyridine-2-carboxamide], the EC (150% of control) stood at 0.1 µM.

On to `NC(=O)c1ccc2cncc(-c3cc(F)c(F)c(F)c3)c2n1` [Example 84, 8-(3,4,5-Trifluorophenyl)-1,6-naphthyridine-2-carboxamide], for which the EC (150% of control) turned out to be 0.25 µM.

`N#Cc1ccc(-c2cncc3ccc(C(N)=O)nc23)cc1` [Example 85, 8-(4-Cyanophenyl)-1,6-naphthyridine-2-carboxamide]: the EC (150% of control) was determined as 0.05 µM.

Compound `CS(=O)(=O)c1ccc(-c2cncc3ccc(C(N)=O)nc23)cc1` [Example 86, 8-(4-(Methylsulfonyl)phenyl)-1,6-naphthyridine-2-carboxamide] had an EC (150% of control) of 0.03 µM.

`CS(=O)(=O)c1cccc(-c2cncc3ccc(C(N)=O)nc23)c1` [Example 87, 8-(3-(Methylsulfonyl)phenyl)-1,6-naphthyridine-2-carboxamide] showed an EC (150% of control) of 0.79 µM.

Regarding `CS(=O)(=O)c1ccccc1-c1cncc2ccc(C(N)=O)nc12` [Example 88, 8-(2-(Methylsulfonyl)phenyl)-1,6-naphthyridine-2-carboxamide], the EC (150% of control) was 0.5 µM.

For `COc1ccc(-c2cncc3ccc(C(N)=O)nc23)cn1` [Example 89, 8-(6-Methoxypyridin-3-yl)-1,6-naphthyridine-2-carboxamide], the EC (150% of control) was determined as 0.09 µM.

`Cc1cc(-c2cncc3ccc(C(N)=O)nc23)ccn1` [Example 90, 8-(2-Methylpyridin-4-yl)-1,6-naphthyridine-2-carboxamide] displayed an EC (150% of control) of 0.17 µM.

Regarding `NC(=O)c1ccc2cncc(-c3ccc4c(c3)OCO4)c2n1` [Example 91, 8-(Benzo[d][1,3]dioxol-5-yl)-1,6-naphthyridine-2-carboxamide], the EC (150% of control) stood at 0.03 µM.

The compound `NC(=O)c1ccc2cncc(-c3ccc4c(c3)OCCO4)c2n1` [Example 92, 8-(2,3-Dihydrobenzo[b][1,4]dioxin-6-yl)-1,6-naphthyridine-2-carboxamide] registered an EC (150% of control) of 0.03 µM.

`NC(=O)c1ccc2cncc(-c3cccc(N4CCOCC4)c3)c2n1` [Example 93, 8-(3-Morpholinophenyl)-1,6-naphthyridine-2-carboxamide]: the EC (150% of control) is 0.21 µM.

With `NC(=O)c1ccc2cncc(-c3ccc(N4CCOCC4)cc3)c2n1` [Example 94, 8-(4-Morpholinophenyl)-1,6-naphthyridine-2-carboxamide], the EC (150% of control) was found to be 0.01 µM.

With `NC(=O)c1ccc2cncc(-c3ccc(OC(F)(F)F)cc3)c2n1` [Example 95, 8-(4-(Trifluoromethoxy)phenyl)-1,6-naphthyridine-2-carboxamide], the EC (150% of control) amounted to 0.05 µM.

`O=C(NCc1ccncn1)c1ccc2cncc(-c3ccc(Cl)cc3)c2n1` [Example 96, 8-(4-Chlorophenyl)-N-(pyrimidin-4-ylmethyl)-1,6-naphthyridine-2-carboxamide] showed an EC (150% of control) of 0.17 µM.

Consider `CN(C(=O)c1ccc2cncc(-c3ccc(Cl)cc3)c2n1)C1CC1` [Example 97, 8-(4-Chlorophenyl)-N-cyclopropyl-N-methyl-1,6-naphthyridine-2-carboxamide], for which the EC (150% of control) amounted to 0.26 µM.

For `Cn1cc(-c2cncc3ccc(C(N)=O)nc23)cn1` [Example 98, 8-(1-Methyl-1H-pyrazol-4-yl)-1,6-naphthyridine-2-carboxamide], the EC (150% of control) worked out at 0.14 µM.

As for `Cn1nccc1-c1cncc2ccc(C(N)=O)nc12` [Example 99, 8-(1-Methyl-1H-pyrazol-5-yl)-1,6-naphthyridine-2-carboxamide], the EC (150% of control) is 2.2 µM.

Consider `COCc1cccc(-c2cncc3ccc(C(N)=O)nc23)c1` [Example 100, 8-(3-(Methoxymethyl)phenyl)-1,6-naphthyridine-2-carboxamide], for which the EC (150% of control) worked out at 0.02 µM.

With `NC(=O)c1ccc2cncc(-c3ccc(C(F)(F)F)cc3)c2n1` [Example 101, 8-(4-(Trifluoromethyl)phenyl)-1,6-naphthyridine-2-carboxamide], the EC (150% of control) was 0.02 µM.

`Cc1nc(C)c(-c2cncc3ccc(C(N)=O)nc23)s1` [Example 102, 8-(2,4-Dimethylthiazol-5-yl)-1,6-naphthyridine-2-carboxamide] gave an EC (150% of control) of 0.14 µM.

`NC(=O)c1ccc2cncc(-c3ccc(-n4cccn4)cc3)c2n1` [Example 103, 8-(4-(1H-Pyrazol-1-yl)phenyl)-1,6-naphthyridine-2-carboxamide]: the EC (150% of control) is 0.01 µM.

`COCc1ccc(-c2cncc3ccc(C(N)=O)nc23)cc1` [Example 104, 8-(4-(Methoxymethyl)phenyl)-1,6-naphthyridine-2-carboxamide]: the EC (150% of control) stood at 0.02 µM.

`CC(C)Oc1ccc(-c2cncc3ccc(C(N)=O)nc23)cc1` [Example 105, 8-(4-Isopropoxyphenyl)-1,6-naphthyridine-2-carboxamide] registered an EC (150% of control) of 0.01 µM.

On to `CN(C)S(=O)(=O)c1ccc(-c2cncc3ccc(C(N)=O)nc23)cc1` [Example 106, 8-(4-(N,N-Dimethylsulfamoyl)phenyl)-1,6-naphthyridine-2-carboxamide], for which the EC (150% of control) worked out at 0.19 µM.
